From patent publication US20130131008A1, “LIPOPHILIC MONOPHOSPHORYLATED DERIVATIVES AND NANOPARTICLES” (BOARD OF REGENTS, THE UNIVERSITY OF TEXAS SYSTEM, priority 2011, published 2013)

Assays:
[1] = molecular target: T1, dCDA partially purified from BxPC-3 cells (Homo sapiens, UniProt P32320); test: dCDA activity (competition) assay, conversion of dCyd to dUrd; format: biochemical; conditions: 0.5 mM dCyd, 37° C., 15 min; inhibitor […] (FIG. 2B)
T1 construct: dCDA was partially purified from BxPC-3 cells as previously described; endogenous in cells; host or cells: BxPC-3 (ATCC CRL-1687), 40-55% ammonium sulfate fraction of the cell lysate
T1 sequence (P32320 whole entry): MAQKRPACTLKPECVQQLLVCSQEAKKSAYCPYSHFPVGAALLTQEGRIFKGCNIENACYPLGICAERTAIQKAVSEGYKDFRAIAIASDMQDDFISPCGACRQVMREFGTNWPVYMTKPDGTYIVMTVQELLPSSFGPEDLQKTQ
Method: Proton NMR spectra were recorded on a 300 MHz Varian UNITYplus™ or a 500 MHz Varian INOVA. Chemical shifts (δ) of ^1H NMR spectra were recorded in parts per million (ppm) relative to tetramethylsilane (TMS), which was the reference (δ=0 ppm). ^1H NMR data are reported according to the following order: chemical shift, integration (i.e., number of hydrogen atoms), multiplicity (s=singlet, d=doublet, t=triplet, q=quartet, m=multiplet, br=broad, brs=broad singlet), and coupling constant in Hertz (Hz). […] The concentrations of dCyd and dUrd in the dCDA assay were determined using an Agilent 1260 Infinity high performance liquid chromatography (HPLC) with an Agilent ZORBAX® Eclipse Plus C18 column (4.6×150 mm, 5 μm) attached to a ZORBAX® Eclipse Plus guard column (Agilent Technologies, Inc., Santa Clara, Calif.).
dCDA was partially purified from BxPC-3 cells as previously described. […] Protein concentration was measured using Bradford reagent from Sigma-Aldrich. […] The mixture was centrifuged at 10,000 g for 1 min, and the upper layer was analyzed using HPLC (detection wavelength, 260 nm; mobile phase, 10% methanol in water). The relevant peaks were quantified to determine the concentrations of dCyd and dUrd. […]

B16-F10 melanoma tumor = test: Antitumor activity of GemC18/PEG-C18 micelles in mice with B16-F10 tumors (Example 20); format: in vivo, mouse; conditions: C57BL/6 mice, tail vein injection, 0.283 mg GemHCl or molar equivalent GemC18; 2 doses (micelles 3 doses), 3 days apart
Method: The in vivo antitumor activity of GemC18/PEG-C18 micelles was evaluated in C57BL/6 mice with subcutaneously inoculated B16-F10 cells (5.0×10^5/mouse) in the right flank. Treatments were given 6 days after tumor cell inoculation by tail vein injection with normal saline, Gemcitabine HCl (GemHCl) solution, GemC18 solution, blank PEG-C18 micelles, or GemC18/PEG-C18 micelles. The dose was 0.283 mg of GemHCl or molar equivalent amount of GemC18. All groups received a second dose three days after the first dose, while the GemC18/PEG-C18 micelle group also received a third dose 3 days after the second dose. Tumor sizes were measured with calipers in two perpendicular diameters every day and reported as tumor volume (V=½ [a×b^2], a=longer diameter, b=shorter diameter).

TC-1-GR tumors = conditions: mice with pre-established TC-1-GR tumors; cited from earlier work
PANC-1 cells = conditions: literature value; read-out: IC50 in PANC-1 cells reported by Duxbury et al.; cited from earlier work

In the case of Cl.Nc1ccn([C@@H]2O[C@H](CO)[C@@H](O)C2(F)F)c(=O)n1 [Gemcitabine HCl, 2′,2′-difluorodeoxycytidine HCl, reference compound], the “Inhibition of the deamination of dCyd (conversion to dUrd) by dCDA” value [1] is listed as “competitively inhibited the conversion of dCyd to dUrd”, the “B16-F10 tumor growth (tumor volume)” value (B16-F10 melanoma tumor) is listed as “not significant different from that in mice that received normal saline” and the “TC-1-GR tumor growth in mice (previous study)” value (TC-1-GR tumors) is listed as “did not show any significant anti-tumor activity”. For the same compound, the IC50 (PANC-1 cells) was 50 nM.
